US20260364124A1, “ANTI-C. DIFFICILE SMALL MOLECULE METABOLITES FROM DIET AND GUT MICROBIOME” (The Children's Medical Center Corporation, priority 2023, published 2026)
“Also recorded” adds a separate entry of the source.

What was measured:
B. uniformis = experiment: In vitro aglycone liberation by wildtype B. uniformis (LC-MS); set-up: species or system Bacteroides uniformis ATCC 8492; settings: role: product; B. uniformis culture supplemented with glycoside, after eight hours, LC-MS EIC (FIG. 2)
From the text: Comparative LC-MS EICs (Extracted Ion Chromatogram) of methanol-water extracts of bacterial cultures supplemented with each polyphenolic glycoside after eight hours are provided. The trace labeled “A” corresponds to the EIC of each glycoside, and the trace labeled “B” corresponds to the EIC of each aglycone. The portion of the trace “B” peak overlapping the trace “A” peak corresponds to the aglycone detected from fragmentation of the glycoside at the ionization source and is a technical artifact.
FIGS. 5A and 5B show microbiome-mediated polyphenol aglycone liberation. […] Step 2: Spent media was filter-sterilized. Step 3: C. difficile was grown in spent media from either vehicle or polydatin (top).
In vitro aglycone liberation: All B. uniformis strains were grown on brain-heart-infusion supplemented with hemin (50 mg/L) and vitamin K1 (0.25 mg/L) (BHIS) agar plates or in basal media (BSG; proteose peptone (20 g/L), yeast (5 g/L), NaCl (5 g/L), glucose (5 g/L), potassium phosphate dibasic (5 g/L), cysteine (0.5 g/L), hemin (50 mg/L), and vitamin K1 (0.25 mg/L). All isolates were recovered on and grown in pre-reduced media in a Coy anaerobic chamber (Coy Labs).
To assess the capacity of Bacteroides to liberate aglycones from their parent polyphenolic glycosides, B. uniformis ATCC 8492 WT and AgshD were recovered on a BHIS agar plate and incubated anaerobically at 37 °C for 48 h. A starter culture (1 mL) of BSG was inoculated with each isolate and grown for 15 h. This starter culture was then used to inoculate a BSG sub-culture (1 mL) at a final dilution of 1:10. […]
For polyphenolic glycoside and aglycone-containing samples, samples were dried under nitrogen flow and resuspended in 50 μl of methanol 50% in water. […] Samples were quantified on a QEplus mass spectrometer coupled to an Ultimate 3000 LC (Thermo fisher). […] Quantification was performed using Tracefinder (Thermo fisher), using the ratio of the area under the peak for each compound and of the internal standard, using the accurate mass of the [M−H]^− ions.

C. difficile [1] = experiment: Phytochemical microbial killing assay, panel of gut bacterial pathogens; format: cell-based, Clostridioides difficile; settings: 150 μM, media with glucose, growth ratio (AUC) vs vehicle, panel of gut bacterial pathogens (FIG. 3A)
Protocol: Growth is measured as the ratio of growth in media (AUC) supplemented with glucose and 150 μM glycoside or aglycone versus growth in media (AUC) supplemented with glucose and vehicle. Value>1 is representative of enhanced growth in compound and value<1 is representative of inhibition of growth in compound.
Phytochemical microbial killing assays: All gut pathogen isolates were grown on brain-heart-infusion supplemented with hemin (50 mg/L) and vitamin K1 (0.25 mg/L) (BHIS) agar plates or in basal media (BSG; proteose peptone (20 g/L), yeast (5 g/L), NaCl (5 g/L), glucose (5 g/L), potassium phosphate dibasic (5 g/L), cysteine (0.5 g/L), hemin (50 mg/L), and vitamin K1 (0.25 mg/L). Isolates were recovered on and grown in pre-reduced media in a Coy anaerobic chamber (Coy Labs). To determine the fitness effects of phloridzin hydrate (TCI), phloretin (TCI), polydatin (TCI), and resveratrol (TCI) on enteric pathogen fitness, each pathogen isolate was recovered on a BHIS agar plate and incubated anaerobically at 37 °C for 48 h. A starter culture (1 mL) of BSG was inoculated with C. difficile and grown for 15 h. […] Bacterial growth was monitored by measuring the optical density at 600 nm (OD600) of each culture in a 384 well plate with an Epoch2 spectrophotometer (BioTek Instruments) and MicroPlate stacker (Agilent BioTek) for 24 hours.

C. difficile isolates = experiment: Phytochemical microbial killing assay, diverse C. difficile isolates; format: cell-based, Clostridioides difficile
Protocol: (§1) FIG. 3B provides a heatmap of growth of 20 Clostridioides difficile isolates in the absence of presence of the polyphenolic glycoside polydatin or the Bacteroides liberated aglycone resveratrol. […] Growth induction or inhibition is measured as the ratio of growth in media (AUC) supplemented with glucose and 150 μM polydatin or resveratrol versus growth in media (AUC) supplemented with glucose and vehicle. Value>1 is representative of enhanced growth in compound and value <1 is representative of inhibition of growth in compound.
Bacterial isolates were grown in vitro in media plus compound. Killing was measured by bacterial culture optical density (proxy for amount of bacteria in a culture).
Phytochemical microbial killing assays: All gut pathogen isolates were grown on brain-heart-infusion supplemented with hemin (50 mg/L) and vitamin K1 (0.25 mg/L) (BHIS) agar plates or in basal media (BSG; proteose peptone (20 g/L), yeast (5 g/L), NaCl (5 g/L), glucose (5 g/L), potassium phosphate dibasic (5 g/L), cysteine (0.5 g/L), hemin (50 mg/L), and vitamin K1 (0.25 mg/L). Isolates were recovered on and grown in pre-reduced media in a Coy anaerobic chamber (Coy Labs). To determine the fitness effects of phloridzin hydrate (TCI), phloretin (TCI), polydatin (TCI), and resveratrol (TCI) on enteric pathogen fitness, each pathogen isolate was recovered on a BHIS agar plate and incubated anaerobically at 37 °C for 48 h. A starter culture (1 mL) of BSG was inoculated with C. difficile and grown for 15 h. This starter culture was then used to inoculate a BSG sub-culture (1 mL) at a final dilution of 1:10. This sub-culture was grown for 3 h to an OD600~0.5 before being used to inoculate experimental cultures at a final dilution of 1:50. The experimental media consisted of a modified YCFA media (mYCFA; casitone (2.5 g/L), yeast extract (0.625 g/L), cysteine (0.5 g/L), magnesium sulfate heptahydrate (f.c. 365 μM), calcium chloride dihydrate (f.c. 610 μM), sodium bicarbonate (4 g/L), dipotassium phosphate (0.45 g/L), monopotassium phosphate (0.45 g/L), sodium chloride (0.9 g/L), sodium acetate (2.71 g/L), Hemin (50 mg/L), Vitamin K1 (0.25 mg/L), ferrous sulfate (4 μg/mL), ATCC vitamin mix (1% v/v)) supplemented with glucose (15 mM, Sigma) plus each compound (150 μM) or glucose (15 mM, Sigma) plus DMSO (0.15%, Sigma). Bacterial growth was monitored by measuring the optical density at 600 nm (OD600) of each culture in a 384 well plate with an Epoch2 spectrophotometer (BioTek Instruments) and MicroPlate stacker (Agilent BioTek) for 24 hours.

C. difficile [2] = experiment: C. difficile infection (CDI) mouse model, C. difficile burden (CFU); format: in vivo, mouse (C57BL/6J) infected with Clostridioides difficile; settings: infected mice; for anti-microbial effect on C. difficile in vivo: 500 μM in drinking water, CFU at day one and day two (FIG. 3C); for C. difficile burden in vivo: pure compound administered (FIGS. 6A-6B)
Protocol: as §1
C. difficile infection (CDI) model: An antibiotic-treatment-induced CDI mouse model developed previously was used for the infection model. Briefly, six-to eight-week-old male and female SPF C57BL/6J WT mice were treated for three days with a mixture of antibiotics including vancomycin (0.4 mg/mL, Sigma) colistin (850 U/mL, Sigma), metronidazole (0.215 mg/mL, Sigma), gentamicin (0.035 mg/mL, RPI), and kanamycin (0.045 mg/mL, Sigma) in their drinking water. Mice were then treated with regular water for two days and then injected intraperitoneal (IP) with clindamycin (10 mg/kg, Mylan Pharmaceuticals) in normal saline. After one day, mice were gavaged with […] of C. difficile M7404 diluted in PBS. Stool was collected from mice at one day and two days post infection, and immediately taken for assessment of C. difficile infection load.
C. difficile colony-forming units (CFUs): Mouse feces were collected from mice on day one and day two of C. difficile infection. Feces were weighed and resuspended to 50 mg/mL in pre-reduced 1× PBS. CFUs were enumerated by plating multiple dilutions on pre-reduced commercial ChromID C. difficile -selective plates (Biomerieux) after incubation for 24 hours at 37 °C in an anaerobic chamber (Coy Labs).

SMILES	liberation of aglycone from polyphenolic glycoside (B. uniformis)	selective killing of C. difficile (C. difficile [1])	growth inhibition of Clostridioides difficile (C. difficile isolates; 150 μM, 20 C. difficile isolates, growth ratio (AUC) vs vehicle (FIG. 3B))	killing / growth inhibition of diverse C. difficile isolates (C. difficile isolates; in vitro, media plus compound, culture optical density (FIG. 4))	anti-microbial effect on C. difficile in vivo (C. difficile [2])	C. difficile burden in vivo (C. difficile [2])
Oc1ccc(C=Cc2cc(O)cc(O)c2)cc1 [resveratrol]	liberates phloretin and resveratrol from their natural prodrugs in vitro	selectively kill the enteric pathogen C. difficile; also recorded: selectively kill hypervirulent C. difficile	showed growth inhibition of Clostridioides difficile; also recorded: universally anti-microbial against C. difficile	kills many diverse C. difficile isolates; also recorded: showed growth inhibition of C. difficile	potent anti-microbial effects on C. difficile in vivo	decreases C. difficile burden
O=C(CCc1ccc(O)cc1)c1c(O)cc(O)cc1O [phloretin]	liberates phloretin and resveratrol from their natural prodrugs in vitro	selectively kill the enteric pathogen C. difficile; also recorded: selectively kill hypervirulent C. difficile			potent anti-microbial effects on C. difficile in vivo	decreases C. difficile burden
